Results published in patent publication US20150368617A1, “METHOD FOR FORMING ENDOTHELIAL CELLS” (Korea Advanced Institute of Science and Technology (KAIST), priority 2012, published 2015).

Key:
Assay type in all cases: cell-based, mouse
CD144+ ECs = assay: BrdU/7-AAD cell cycle analysis and BrdU incorporation in differentiating Flk1+ MPCs
Protocol: (§1) Apoptosis assay was performed as previously described. To determine the cell cycle, BrdU/7-AAD cell cycle analysis was performed according to the manufacturer's instructions (BD Pharmingen™). Briefly, cells were incubated with BrdU (1 mM) for 1 hr, dissociated with dissociation buffer, and stained with anti-CD144 antibody. The cells were then fixed, permeabilized, and fixed once more, followed by 1 hr incubation with DNase I (200 U) at 37┌ C. After incubation with FITC-conjugated anti-BrdU antibody for 20 min at RT, the cells were stained with 7-AAD. The cells were analyzed by FACS Aria II and the data were analyzed using FlowJo software.

ICAM2+ ECs [1] = assay: Quantitative RT-PCR of EC- and MC-related genes in purified ICAM2+ ECs; details: VEGF-A plus Y27632 compared to VEGF-A
From the text: Total RNA from purified ICAM-2+ ECs was extracted using Trizol RNA extraction kit (Invitrogen) according to the manufacturer's instructions. 1┌ g of the RNA was reverse transcribed into cDNA using GoScript™ cDNA synthesis system (Promega). Synthesized cDNA was applied for quantitative real-time PCR using FastStart SYBR green Master (Roche) and Bio-Rad S1000 Thermal cycler with the indicated primers (Table I). GAPDH was used as reference gene and the results were presented as relative expression to control using the ddCt method.

ICAM2+ ECs [2] = assay: Cell cycle FACS analysis in ICAM2+ ECs; details: 12 hrs after plating
Protocol: FIGS. 15A-15D. ROCK suppression continuously promotes the expansion of ECs. ICAM2+ ECs were further incubated with PBS (Control), Y27632 (10┌ M), VEGF-A (50 ng/ml; VA) or Y27632 (10┌ M) plus VEGF-A (50 ng/ml) for 2 days, and analyses were performed at day 8.5. (FIG. 15A) Representative FACS analysis showing cell cycle in ICAM2+ ECs at 12 hrs. (FIG. 15B) % of ICAM2+ ECs under each phase of cell cycle at 12 hrs. Each group, n=3. *p<0.01 versus Control; ^#p<0.01 versus VEGF-A. (FIG. 15C) Representative FACS analysis of Annexin V+/PI− apoptotic ECs. (FIG. 15D) % of Annexin V+/PI− ECs. Each group, n=3. *p<0.01 versus Control.
as §1

Structure (SMILES): C[C@@H](N)[C@H]1CC[C@H](C(=O)Nc2ccncc2)CC1 [Y27632]
- increase of BrdU+/CD144+ EC population (CD144+ ECs; 12 hrs): 1.7 fold
- increase of BrdU+/CD144+ EC population (CD144+ ECs; 36 hrs): 2.7 fold
- increase of population of CD144+ ECs in S phase compared to control (CD144+ ECs; 36 hrs): 1.23 fold
- reduction of CD144+ ECs in G0/G1 phase compared to control (CD144+ ECs; 36 hrs): 12%
- calponin mRNA, reduced expression level (ICAM2+ ECs [1]): 25 fold
- claudin-5 mRNA, expressed more (ICAM2+ ECs [1]): 4.6 fold
- dll4 mRNA, expressed more (ICAM2+ ECs [1]): 2.5 fold
- ets1 mRNA, expressed more (ICAM2+ ECs [1]): 1.4 fold
- ets2 mRNA, expressed more (ICAM2+ ECs [1]): 2.1 fold
- notch1 mRNA, expressed more (ICAM2+ ECs [1]): 1.5 fold
- sm22a mRNA, reduced expression level (ICAM2+ ECs [1]): 25 fold
- sma mRNA, reduced expression level (ICAM2+ ECs [1]): 17 fold
- sox17 mRNA, expressed more (ICAM2+ ECs [1]): 1.7 fold
- sox18 mRNA, expressed more (ICAM2+ ECs [1]): 1.8 fold
- vegfr3 mRNA, expressed more (ICAM2+ ECs [1]): 1.7 fold
- increase of percentage of cells in S phase compared to control (ICAM2+ ECs [2]): ~1.8 fold
